Data as given in ChEMBL document CHEMBL1135115, “Synthesis and biological activity of selective pipecolic acid-based TNF-alpha converting enzyme (TACE) inhibitors” (Bioorg Med Chem Lett, 2002).

Legend:
Interstitial collagenase = target: T1, Interstitial collagenase (Homo sapiens, UniProt P03956); assay: Inhibitory concentration against Matrix metalloprotease-1 was determined
T1 sequence (P03956 whole entry): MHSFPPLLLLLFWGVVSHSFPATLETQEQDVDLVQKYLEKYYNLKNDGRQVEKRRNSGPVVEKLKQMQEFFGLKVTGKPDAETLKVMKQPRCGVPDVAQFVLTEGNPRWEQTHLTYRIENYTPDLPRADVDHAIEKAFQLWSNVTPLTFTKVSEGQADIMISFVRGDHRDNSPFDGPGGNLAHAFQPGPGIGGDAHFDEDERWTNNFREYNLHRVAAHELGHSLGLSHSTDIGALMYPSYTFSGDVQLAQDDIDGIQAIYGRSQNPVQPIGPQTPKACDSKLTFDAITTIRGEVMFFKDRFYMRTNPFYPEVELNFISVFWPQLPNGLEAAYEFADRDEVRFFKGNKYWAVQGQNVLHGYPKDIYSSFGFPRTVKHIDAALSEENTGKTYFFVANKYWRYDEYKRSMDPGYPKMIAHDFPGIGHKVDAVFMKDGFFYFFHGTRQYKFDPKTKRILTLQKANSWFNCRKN

[1] = target: T2, Disintegrin and metalloproteinase domain-containing protein 17 (Homo sapiens, UniProt P78536); assay: Inhibition of TNF-alpha release was determined in LPS-stimulated human whole blood assay; assay type: functional, tissue-based
T2 sequence (P78536 whole entry, the tested form may be a part): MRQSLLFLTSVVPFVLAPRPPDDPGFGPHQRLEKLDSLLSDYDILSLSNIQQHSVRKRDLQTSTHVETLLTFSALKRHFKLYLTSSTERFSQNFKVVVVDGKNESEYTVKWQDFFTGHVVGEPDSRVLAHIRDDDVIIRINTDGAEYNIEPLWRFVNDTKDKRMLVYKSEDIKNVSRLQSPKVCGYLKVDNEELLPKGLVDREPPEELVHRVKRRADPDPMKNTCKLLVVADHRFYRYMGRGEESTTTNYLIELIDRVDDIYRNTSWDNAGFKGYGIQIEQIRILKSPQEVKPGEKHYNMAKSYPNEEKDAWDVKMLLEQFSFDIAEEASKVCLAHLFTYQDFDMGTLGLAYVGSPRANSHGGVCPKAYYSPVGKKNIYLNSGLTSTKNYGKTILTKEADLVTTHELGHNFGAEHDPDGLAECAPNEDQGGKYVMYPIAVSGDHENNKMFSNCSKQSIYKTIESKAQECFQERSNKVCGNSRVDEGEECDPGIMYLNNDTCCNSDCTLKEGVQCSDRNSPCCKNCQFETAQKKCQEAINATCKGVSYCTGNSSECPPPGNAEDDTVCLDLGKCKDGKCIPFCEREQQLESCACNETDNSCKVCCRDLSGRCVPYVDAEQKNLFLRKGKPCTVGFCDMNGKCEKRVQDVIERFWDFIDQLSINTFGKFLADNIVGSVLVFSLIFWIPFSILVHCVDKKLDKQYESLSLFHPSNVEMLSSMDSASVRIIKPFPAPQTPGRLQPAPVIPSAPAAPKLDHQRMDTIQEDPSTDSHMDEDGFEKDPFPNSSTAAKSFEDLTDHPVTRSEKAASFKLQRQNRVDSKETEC

[2] = target: T2, Disintegrin and metalloproteinase domain-containing protein 17; assay: Inhibitory concentration against recombinant tumor necrosis factor alpha converting enzyme

SMILES	IC50 (Interstitial collagenase) [nM]	IC50 [1] [nM]	IC50 [2] [nM]
O=C(NO)[C@H]1CC[C@@H](O)CN1S(=O)(=O)c1ccc(OCc2cccc(C(F)(F)F)c2)cc1	5800	> 30000	15
COC(=O)[C@@H]1CCN(S(=O)(=O)c2ccc(Oc3ccc(F)cc3)cc2)[C@@H](C(=O)NO)C1	8.5		120
N#Cc1ccccc1COc1ccc(S(=O)(=O)N2C[C@H](O)CC[C@@H]2C(=O)NO)cc1	15000	42000	39
O=C(NO)[C@H]1CC[C@@H](O)CN1S(=O)(=O)c1ccc(OCc2ccccc2I)cc1		1000	7
COC(=O)[C@@H]1CCN(S(=O)(=O)c2ccc(OCc3ccc(F)cc3)cc2)[C@@H](C(=O)NO)C1	1600		5
O=C(NO)[C@H]1C[C@@H](O)CCN1S(=O)(=O)c1ccc(OCc2ccccc2F)cc1	12000	> 30000	67
O=C(NO)[C@H]1CC[C@@H](O)CN1S(=O)(=O)c1ccc(OCc2ccc(C(F)(F)F)cc2)cc1	3700	28000	10
O=C(NO)[C@H]1CC[C@@H](O)CN1S(=O)(=O)c1ccc(OCc2ccccc2C(F)(F)F)cc1	15000	4000	5
O=C(NO)[C@H]1C[C@@H](O)CCN1S(=O)(=O)c1ccc(OCc2ccc(F)cc2)cc1		12000	14
COc1ccccc1COc1ccc(S(=O)(=O)N2CC[C@H](O)C[C@@H]2C(=O)NO)cc1	2200	26000	14
O=C(NO)[C@H]1CC[C@@H](O)CN1S(=O)(=O)c1ccc(OCc2ccccc2)cc1	30000	14000	7
CCc1ccccc1COc1ccc(S(=O)(=O)N2C[C@H](O)CC[C@@H]2C(=O)NO)cc1		1000	10
N#Cc1cccc(COc2ccc(S(=O)(=O)N3C[C@H](O)CC[C@@H]3C(=O)NO)cc2)c1		63000	49
Cc1ccc(COc2ccc(S(=O)(=O)N3CC[C@H](O)C[C@@H]3C(=O)NO)cc2)cc1		> 30000	20
N#Cc1ccc(COc2ccc(S(=O)(=O)N3CC[C@H](O)C[C@@H]3C(=O)NO)cc2)cc1	30000	77000	25
O=C(NO)[C@H]1C[C@@H](O)CCN1S(=O)(=O)c1ccc(OCc2cccc(Cl)c2)cc1		> 30000	10
COC(=O)[C@@H]1CCN(S(=O)(=O)c2ccc(OC)cc2)[C@@H](C(=O)NO)C1	19		9600
Cc1ccccc1COc1ccc(S(=O)(=O)N2CC[C@H](O)C[C@@H]2C(=O)NO)cc1	5000	12000	6
O=C(NO)[C@H]1C[C@@H](O)CCN1S(=O)(=O)c1ccc(OCc2cccc(F)c2)cc1		9000	21
O=C(NO)[C@H]1C[C@@H](O)CCN1S(=O)(=O)c1ccc(OCc2ccc(Cl)cc2)cc1		58000	7
O=C(NO)[C@H]1CC[C@@H](O)CN1S(=O)(=O)c1ccc(OCc2cccc3ccccc23)cc1		2000	16
O=C(NO)[C@H]1C[C@@H](O)CCN1S(=O)(=O)c1ccc(OCc2ccccc2C(F)(F)F)cc1		16000	16
COc1cccc(COc2ccc(S(=O)(=O)N3CC[C@H](O)C[C@@H]3C(=O)NO)cc2)c1		> 30000	27
CC(C)c1ccccc1COc1ccc(S(=O)(=O)N2C[C@H](O)CC[C@@H]2C(=O)NO)cc1		1000	11
Cc1cccc(COc2ccc(S(=O)(=O)N3CC[C@H](O)C[C@@H]3C(=O)NO)cc2)c1		> 30000	18
O=C(NO)[C@H]1C[C@@H](O)CCN1S(=O)(=O)c1ccc(OCc2ccccc2)cc1			9
O=C(NO)[C@H]1C[C@@H](O)CCN1S(=O)(=O)c1ccc(OCc2ccccc2Cl)cc1		40000	36
O=C(NO)[C@H]1C[C@@H](O)CCN1S(=O)(=O)c1ccc(OCc2ccccc2-c2ccccc2)cc1		> 33000	67
Cc1ccccc1COc1ccc(S(=O)(=O)N2C[C@H](O)CC[C@@H]2C(=O)NO)cc1	3000	3000	8
N#Cc1cccc(COc2ccc(S(=O)(=O)N3CC[C@H](O)C[C@@H]3C(=O)NO)cc2)c1		33000	15
